Measured values reported in patent US5393765A, “Pharmaceutical compositions with constant erosion volume for zero order controlled release” (Hoffmann-La Roche Inc., priority 1993, dated 1995).
Converted amounts (≈) assume the structure as drawn. Where a name gives a salt, the structure may show the parent alone. Read-outs that look alike come from different tables or passages of the source.

How the values were obtained:
[1] = Drug release from the erodible matrix, USP dissolution test (Basket or Paddle Method); assay type: physicochemical; conditions: in the given dissolution medium; FIGS. 2-7 and 9-15; FIG. 8 (chlorpheniramine maleate composition with the polymer, water, 37° C., Basket Method, 100 rpm)
Experimental: The evaluation of drug release from the erodible matrix was performed using the USP dissolution test procedure with either the Basket or Paddle Method at the speed as specified. […] Briefly, in both methods, one tablet is placed in the appropriate apparatus described below containing the specified amount of dissolution medium and the stirring element is started. The amount of drug in solution is determined by the UV spectrophotometric method as is known in the art. The assembly used in the Basket Method consists of the following: a covered vessel made of glass with nominal capacity 1000 mL; a motor; a metallic drive shaft; and a cylindrical basket. The vessel containing 900 mL of the specified dissolution medium (i.e., water, 1% nonionic surfactant Emulphor ON-870 in phosphate buffer, pH 7.5 or 3% sodium lauryl sulfate, pH 9.0) is partially immersed in a suitable water bath and equilibrated at 37°±0.5° C. A fitted cover may be used to retard evaporation. The shaft is positioned so that its axis is not more than 2 mm at any point from the vertical axis of the vessel and rotates smoothly and without significant wobble. A speed-regulating device is used that allows the shaft rotation speed to be selected and maintained at the specified rate. The recommended basket speed is 100 rpm. […] The drug analysis was determined by UV spectrophotometry.

[2] = Solubility of the exemplary drugs in water at 25° C.; assay type: physicochemical
Experimental: Solubility of the exemplary drugs in water at 25° C. is as follows: […]

[3] = in water at 25° C., read-out: Solubility

SMILES	solubility [2, 3]	also measured
CN(C)CCC(c1ccc(Cl)cc1)c1ccccn1 (stereo not drawn) [chlorpheniramine maleate]		Release profile (zero order) [1]: does not produce a zero-order release profile
Cc1nnc2n1-c1sc(C#CCn3c(=O)c4ccccc4c4ccccc43)cc1C(c1ccccc1Cl)=NC2 [5-[3-[4-(2-Chlorophenyl)-9-methyl-6H-thieno[3,2-f][1,2,4]triazolo[4,3-a][1,4]diazepin-2-yl]-2-propynyl]phenanthrydin-6(5H)-one]		solubility ([2]; water): 0.01 µg/mL (≈ 0.0183 µM)
CNC1=Nc2ccc(Cl)cc2C(c2ccc[nH]2)=NC1 [7-Chloro-N-methyl-5-(1H-pyrrol-2-yl)-3H-1,4-benzodiazepin-2-amine]	1.5 µg/mL (≈ 5.5 µM)	
COc1ccc([C@@H]2Sc3c(ccc4ccccc34)N(CCN(C)C)C(=O)[C@@H]2OC(C)=O)cc1 (single isomer, unassigned) [(+)-cis-3-(Acetyloxy)-2,3-dihydro-2-(4-methoxyphenyl)-5-[2-(dimethylamino)ethyl]naphtho[1,2-b]-1,4-thiazepin-4(5H)-one]	80000 µg/mL (≈ 172000 µM)	
CCC(CC)(CC(=O)Nc1cccc(/C=C/c2nc(C3CCC3)cs2)c1)C(=O)O [(E)-4-[[3-[2-(4-Cyclobutyl-2-thiazolyl)ethenyl]phenyl]amino]-2,2-diethyl-4-oxobutanoic acid]	< 2 µg/mL	
O=C(CCCCCCCCc1cccnc1)N1CCC(C=C(c2ccccc2)c2ccccc2)CC1 [4-(2,2-Diphenylethenyl)-1-[1-oxo-9-(3-pyridinyl)nonyl]piperidine]	0.182 µg/mL (≈ 0.379 µM)	
